{"source": "patent US20260167623A1", "about": "(NIKANG THERAPEUTICS, INC., priority 2022, published 2026)", "key": {"[1]": {"molecular_target": "T1, CDK2 (Homo sapiens, UniProt P24941)", "T1 construct": "High-Throughput Measurement of Cellular Endogenous CDK2; endogenous in cells; host or cells: OVCAR3", "assay": "High-throughput HTRF measurement of cellular endogenous CDK2 level (degradation, DC50/Dmax) in OVCAR3 cells, 6 h", "type": "cell-based", "conditions": "6 h compound treatment, HTRF total CDK2, read-out: DC50_OVCAR3_6h", "method_in_brief": "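DC50 and Dmax were derived by four-parameter logistic fit of the […] TR-FRET ratio, scaled between DMSO (0% degradation) and lysis buffer (100%) controls. The ratio came from an HTRF total-CDK2 sandwich immunoassay on lysates of OVCAR3 cells given 0.03–1,000 nM compound for 6 hours.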"}, "[2]": {"molecular_target": "T1, CDK2", "assay": "Inhibition of CDK2: phospho-Rb (S807/811) HTRF measurement in OVCAR3 cells, 24 h", "type": "cell-based", "conditions": "24 h compound treatment, read-out: pRB_OVCAR3_24h", "method_in_brief": "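IC50 came from a four-parameter fit of DMSO-normalized TR-FRET ratios (665/620 nm) reporting phospho-Rb S807/811. Lysates were taken from OVCAR3 cultures treated 24 h with compound (0.3 to 10,000 nM) and incubated 4 h at room temperature with the antibody pair.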"}}, "data": [{"smiles": "Cn1cc(C2CCC(=O)NC2=O)c2ccc(C3CCN(CC4CCN(c5cccc(S(=O)(=O)N6CCC(Nc7ncc(C(F)(F)F)cn7)CC6)c5)CC4)CC3)cc21", "note": "(centres unmarked) [Example 251, 3-(1-methyl-6-(1-((1-(3-((4-((5-(trifluoromethyl)pyrimidin-2-yl)amino)piperidin-1-yl)sulfonyl)phenyl)piperidin-4-yl)methyl)piperidin-4-yl)-1H-indol-3-yl)piperidine-2,6-dione]", "values": [{"measurement": "DC50", "setting": "[1]", "value": "0.01 to 0.1", "unit": "µM"}, {"measurement": "IC50", "setting": "[2]", "value": "0.001 to 0.1", "unit": "µM"}]}]}
